# Assay results from US8524659B2, “RNA virus-derived peptides with modified side chains” (National Taiwan University, priority 2011, dated 2013).
# What was measured:
# Jurkat cells = experiment: MTT assay for determining cell survival; assay type: cell-based; conditions: 7 μM and 30 μM peptide, 4 hours, 37° C., FIG. 4
# Experimental: The cells were grown to appropriate cell density (roughly 2×10^6 cells/mL) and transferred into new media one day before performing the experiment. For each assay, 8×10^5 cells as determined by a hemocytometer were added into an eppendorf. The cells were centrifuged at 2200 rpm for 5 minutes. The supernatant was removed by suction. Then 200 μL of 7 μM or 30 μM XaaTat peptide was added. The cells were incubated for 4 hours at 37° C. and then centrifuged at 2200 rpm for 5 minutes. The cells were washed with RPMI medium twice, and then 200 μL of 0.5 mg/mL MTT in serum free RPMI buffer was added and incubated at 37° C. for 3.5 hours. The cells were then centrifuged at 4000 rpm for 5 minutes. The supernatant was then transferred to two wells (100 μL each) of a 96-well plate. Then 400 μL DMSO was added to the cells in the assaying eppendorf. The eppendorf was then vortexed for 5 minutes to solubilize the MTT purple crystals, and centrifuged at 2200 rpm for 5 minutes. Then the supernatant was transferred to 4 wells (100 μL each) of the 96-well plate for analysis. The absorbance at 570 was determined for each well using a microplate reader with the absorbance at 655 nm used for background correction. A standard curve was generated using different number of cells (8×10^5, 4×10^5 and 2×10^5). The absorbance for each sample for each peptide at each concentration was then correlated to the number of live cells based on the standard curve.
# HIV TAR RNA [1] = experiment: Fluorescence anisotropy binding of Tat peptides to fluorescein-labeled TAR RNA
# Experimental: The binding affinity of XaaTat peptides (Xaa=Agh, Arg and Agb) for TAR RNA was measured by fluorescence anisotropy using a Varian Cary Eclipse fluorescence spectrophotometer. The anisotropy (r) was calculated using the following equation: […]
# where Ivv, Ivh, Ihh, Ihv are the fluorescence intensities with the excitation polarizer and emission polarizer is oriented perpendicular (Ivh and Ihv) and parallel (Ivv and Ihh) to the direction of the polarized excitation. The fluorescein-labeled TAR RNA (F-TAR-RNA) was excited at 490 nm and the polarized emissions were monitored at 512 nm. The slits were set at 10 nm for both excitation and emission. The integration time was 20 seconds. All data were measured in a Sub-Micro (Starna Cell, Inc.) with a starting volume of 160 μL. Each addition (1 μL) of XaaTat was equilibrated for two minutes before the fluorescence signal was recorded. All experiments were performed at room temperature in TKT buffer (TKT: 50 mM Tris-HCl, pH 7.4, 20 mM KCl and 0.02% Tween20). The initial concentration of F-TAR-RNA was 25 nM. The TKT solution and peptide stock solution were both equilibrated at room temperature more than 20 minutes before the experiment. The experiment was repeated three times independently. For every single point, three measurements were performed and the average value was used for deriving the apparent (apparent KD). The apparent for the peptide-RNA complex was derived by fitting the data assuming a 1:1 peptide-RNA stoichiometry. The fitting was performed using Kaleidagraph 3.52. (Synergy Software, CA).
# HIV TAR RNA [2] = experiment: Gel shift assay (EMSA) with fluorescein-labeled TAR RNA in the presence of poly(dI-dC); assay type: binding
# Experimental: The fluorescein-labeled TAR RNA (F-TAR-RNA) was purchased from Sigma. F-TAR-RNA was dissolved in diethyl pyrocarbonate treated H2O to give a 50 μM solution. Binding assays were performed at room temperature. Peptide and RNA were incubated in pH 7.4 buffer (10 μL) containing Tris-HCl (50 mM), KCl (50 mM), poly-dIdC (10 μg/mL), 2% glycerol, and Triton X-100 (0.05%). The F-TAR-RNA concentration was 100 nM. The samples were analyzed by loading into 12% native polyacrylamide gels in […] and electrophoresis was performed with 140 V at room temperature. Dried gels were scanned by the Typhoon TRIO+ Variable Mode Imager. Bands corresponding to the free and bound RNA were quantified using ImageQuant software. The apparent dissociation constants were globally derived from the quantified data assuming a 1:1 binding stoichiometry.
compound,measurement,setting,value
"CC(=O)N[C@@H](Cc1ccc(O)cc1)C(=O)NCC(=O)N[C@@H](CCNC(=N)N)C(=O)N[C@@H](CCCCN)C(=O)N[C@@H](CCCCN)C(=O)N[C@@H](CCNC(=N)N)C(=O)N[C@@H](CCNC(=N)N)C(=O)N[C@@H](CCC(N)=O)C(=O)N[C@@H](CCNC(=N)N)C(=O)N[C@@H](CCNC(=N)N)C(=O)N[C@@H](CCNC(=N)N)C(N)=O [AgbTat, Ac-Tyr-Gly-Agb-Lys-Lys-Agb-Agb-Gln-Agb-Agb-Agb-NH2]",Cytotoxicity (cell survival),Jurkat cells,minimal cytotoxicity
"CC(=O)N[C@@H](Cc1ccc(O)cc1)C(=O)NCC(=O)N[C@@H](CCCNC(=N)N)C(=O)N[C@@H](CCCCN)C(=O)N[C@@H](CCCCN)C(=O)N[C@@H](CCCNC(=N)N)C(=O)N[C@@H](CCCNC(=N)N)C(=O)N[C@@H](CCC(N)=O)C(=O)N[C@@H](CCCNC(=N)N)C(=O)N[C@@H](CCCNC(=N)N)C(=O)N[C@@H](CCCNC(=N)N)C(N)=O [ArgTat, Ac-Tyr-Gly-Arg-Lys-Lys-Arg-Arg-Gln-Arg-Arg-Arg-NH2, reference compound]",Kd,"HIV TAR RNA [1]; Table 2, read-out: KD, binding affinity of Tat-peptide and TAR RNA by fluorescence anisotropy assay",25 ± 3 nM
same,Kd,"HIV TAR RNA [1]; fluorescence anisotropy, 25 nM fluorescein-labeled HIV TAR RNA, absence of poly(dI-dC), 1:1 stoichiometry, read-out: Apparent KD HIV TAR RNA",25 ± 3 nM
same,Kd,"HIV TAR RNA [2]; EMSA, 100 nM fluorescein-labeled HIV TAR RNA, 10 μg/mL poly(dI-dC), 1:1 stoichiometry, read-out: Apparent KD HIV TAR RNA with poly(dI-dC)",67 ± 19 nM
same,Effect of poly(dI-dC) on binding affinity for TAR RNA (specificity),"HIV TAR RNA [2]; comparison of absence and presence of poly(dI-dC), Table 1",somewhat affected
same,Kd,"HIV TAR RNA [2]; in the presence of 10 μg/mL poly(dI-dC), FIG. 9, read-out: KD of peptide and TAR-RNA by gel shift assay",67 ± 19 nM
same,Kd,"HIV TAR RNA [2]; in the presence of poly(dI-dC) at 25° C., Table 3, read-out: KD, dissociation constant of Tat-peptide and TAR RNA by gel shift assay",67 ± 19 nM
same,Cytotoxicity (cell survival),Jurkat cells,minimal cytotoxicity
